From US6461807B1, “Methods for drug target screening” (priority 1997, dated 2002)

Legend:
[1] = test system: S. cerevisiae wild-type and cna, cph1, fpr1 deletion strains; assay: Transcript array comparison of drug-exposed wild-type and deletion mutant yeast, microarray with approximately 5900 ORFs; assay type: cell-based, Saccharomyces cerevisiae
Description: (§1) The RNA was converted into cDNA while simultaneously incorporating fluorescent nucleotides, according to standard protocols as described above. The cDNAs were hybridized to either a microarray having 140 sites with relevant S. cerevisiae ORF sequences, or to a microarray having sites with 5900 sites with nearly all known S. cerevisiae ORF sequences. The intensities of the two fluors used to label the RNAs to be compared were measured at each site of the array. The ratio of these intensities is referred to as the expression ratio.
(§2) To produce deletion mutant transcript arrays, RNA was prepared from a publicly available S. cerevisiae strain that contains genetic disruptions in both catalytic subunits of calcineurin (hereinafter, the cna mutant) and its isogeneic with the parental wild-type strain. These two strains were grown in parallel, harvested and processed in an identical manner as described above. As above, the cDNAs were hybridized to the array and the intensities of the two fluors (expression ratio) were measured at each site of the array. Thereby a cna mutant transcript array was produced.
(§3) Selected pairs of the transcript arrays were compared by computing a correlation coefficient between the pairs as previously described. As is known in the art, higher values of the correlation coefficient represent a greater degree of similarity between the pair of arrays. As indicated subsequently, in some cases expression ratios were directly used for this computation, while in other cases the log10 function of the expression ratios were used.
In this table, columns two and three list the transcript arrays that are compared (labeled “First Transcript Array” and “Second Transcript Array”). Their correlation coefficient is presented in the fourth column (labeled “Corr. Coef.”). The number of standard deviations represented by the correlation coefficient (in terms of the expected correlation coefficient representing one Gaussian standard deviation) is presented in the fifth column (labeled “Std. Dev.”). The expected standard deviation depends on the data set size according to known statistical procedures. The number of standard deviations above the expected mean can be used to determine the statistical significance of the correlation coefficient, as is known in the art.
The transcript arrays measured in Tables 1 and 2 were similarly produced by the previously described methods.

[2] = test system: S. cerevisiae wild-type and cna, cph1, fpr1 deletion strains; assay: Transcript array comparison of drug-exposed wild-type and deletion mutant yeast, microarray with 140 selected ORF sites; assay type: cell-based, Saccharomyces cerevisiae; settings: Table 3, 140 ORF sites
Description: as §1, §2
Deletion mutant transcript arrays were also produced in similar manners for disruptions to the genes cph1 (coding the major cyclophilin in yeast) and fpr1 (coding the major FK506-binding protein).
as §3
This table, in contrast to Table 1 and 2 (which were created from microarrays with approximately 5900 ORF sites) was created from microarray having sites with 140 S. cerevisiae selected ORF sites thought to be relevant to the primary action of these drugs. Correlation coefficients were computed using log10 of the raw expression ratios.

[3] = Table 1, log10 of expression ratios, 1 mg/ml FK506 or 30 mg/ml CSA

Question: For C=CC[C@@H]1/C=C(\C)C[C@H](C)C[C@H](OC)[C@H]2O[C@@](O)(C(=O)C(=O)N3CCCC[C@H]3C(=O)O[C@H](/C(C)=C/[C@@H]3CC[C@@H](O)[C@H](OC)C3)[C@H](C)[C@@H](O)CC1=O)[C@H](C)C[C@@H]2OC [FK506], which “Corr. Coef., wild-type drug transcript array vs fpr1 mutant transcript array” value ([1]; Table 1, log10 of expression ratios, 1 mg/ml FK506) is on record?
Answer: The value was −0.011.

Question: And the “Corr. Coef., wild-type FK506 drug transcript array vs wild-type CSA drug transcript array” value ([1]; Table 1, log10 of expression ratios, 1 mg/ml FK506, 30 mg/ml CSA, three generations)?
Answer: The value was 0.334.

Question: What about the “Corr. Coef., wild-type drug transcript array vs cna mutant drug transcript array (same drug)” value [1, 3] of the same molecule?
Answer: Its value is 0.065.

Question: What about the “Corr. Coef., wild-type drug transcript array vs cna mutant transcript array” value [1, 3] of the same molecule?
Answer: The value was 0.605.

Question: What about the “Corr. Coef., wild-type drug transcript array vs cph1 mutant drug transcript array (same drug)” value [1, 3] of the same molecule?
Answer: Its value is 0.767.

Question: And the “Corr. Coef., wild-type drug transcript array vs fpr1 mutant drug transcript array (same drug)” value [1, 3]?
Answer: The value was −0.085.

Question: And the “Corr. Coef., wild-type FK506 drug transcript array vs cna mutant FK506 drug transcript array” value ([1]; Table 2)?
Answer: The value was 0.052.

Question: What about the “Corr. Coef., wild-type FK506 drug transcript array vs cna mutant transcript array” value ([1]; Table 2) of the same molecule?
Answer: Its value is 0.245.

Question: What about the “Corr. Coef., wild-type FK506 drug transcript array vs cph1 mutant FK506 drug transcript array” value ([1]; Table 2) of the same molecule?
Answer: Its value is 0.328.

Question: What about the “Corr. Coef., wild-type FK506 drug transcript array vs fpr1 mutant FK506 drug transcript array” value ([1]; Table 2) of the same molecule?
Answer: Its value is 0.136.

Question: And the “Corr. Coef., wild-type FK506 drug transcript array vs wild-type CSA drug transcript array” value ([1]; Table 2)?
Answer: The value was 0.243.

Question: And the “Corr. Coef., cna mutant FK506 drug transcript array vs cna mutant CSA drug transcript array” value [2]?
Answer: The value was 0.20.

Question: What about the “Corr. Coef., cph1 mutant FK506 drug transcript array vs cph1 mutant CSA drug transcript array” value [2] of the same molecule?
Answer: The value was 0.15.

Question: What about the “Corr. Coef., cph1 mutant FK506 drug transcript array vs fpr1 mutant CSA drug transcript array” value [2] of the same molecule?
Answer: The value was 0.71.

Question: What about the “Corr. Coef., fpr1 mutant FK506 drug transcript array vs cph1 mutant CSA drug transcript array” value [2] of the same molecule?
Answer: The value was 0.40.

Question: What about the “Corr. Coef., fpr1 mutant FK506 drug transcript array vs fpr1 mutant CSA drug transcript array” value [2] of the same molecule?
Answer: Its value is −0.01.

Question: What about the “Corr. Coef., wild-type FK506 drug transcript array vs wild-type CSA drug transcript array” value ([2]; log10 of raw expression ratios) of the same molecule?
Answer: The value was 0.67.

Question: And the “Corr. Coef., wild-type drug transcript array vs cna mutant drug transcript array (same drug)” value ([2]; log10 of raw expression ratios)?
Answer: Its value is −0.12.

Question: And the “Corr. Coef., wild-type drug transcript array vs cna mutant transcript array” value ([2]; log10 of raw expression ratios)?
Answer: The value was 0.61.

Question: What about the “Corr. Coef., wild-type drug transcript array vs cph1 mutant drug transcript array (same drug)” value ([2]; log10 of raw expression ratios) of the same molecule?
Answer: The value was 0.70.

Question: And the “Corr. Coef., wild-type drug transcript array vs fpr1 mutant drug transcript array (same drug)” value ([2]; log10 of raw expression ratios)?
Answer: Its value is 0.04.

Question: And the “Corr. Coef., wild-type vs wild-type transcript array vs wild-type drug transcript array” value ([2]; negative control comparison)?
Answer: The value was −0.05.
